Each structure is given as a SMILES string.

For data set [1], the system named is iCasp9M-transduced EBV-CTLs. Nature of the data set: CID-induced elimination of GFP+ iCasp9M-transduced EBV-CTLs (flow cytometry for GFP). The data set is classed as cell-based, human. Background: Flow cytometry measures light scatter and fluorescence of single cells or particles in a stream.
The test system of data set [2] is iCasp9-transduced MSCs. Briefly: Apoptosis of iCasp9-transduced undifferentiated MSCs in vitro (annexin V-PE/7-AAD). The data set is classed as cell-based, human. As to conditions: CID 50 nM, 24 hours, FACS example. The protocol: Undifferentiated MSCs. The chemical inducer of dimerization (CID) (AP20187; ARIAD Pharmaceuticals, Cambridge, Mass.) was added at 50 nM to iCasp9-transduced MSCs cultures in complete medium. Apoptosis was evaluated 24 hours later by FACS analysis, after cell harvest and staining with annexin V-PE and 7-AAD in annexin V binding buffer (BD Biosciences, San Diego, Calif.). Control iCasp9-transduced MSCs were maintained in culture without exposure to CID.
The proapoptotic gene product iCasp9 can activated by a small chemical inducer of dimerization (CID), AP20187, an analogue of tacrolimus that binds the FK506-binding domain present in the iCasp9 product. Non-transduced MSCs have a spontaneous rate of apoptosis in culture of approximately 18% (±7%) as do iCasp9-positive cells at baseline (15±6%, P=0.47). Addition of CID (50 nM) to MSC cultures after transduction with iCasp9-ΔCD19 results in the apoptotic death of more than 90% of iCasp9-positive cells within 24 hrs (93±1%, P<0.0001), while iCasp9-negative cells retain an apoptosis index similar to that of non-transduced controls (20±7%, P=0.99 and P=0.69 vs. non-transduced controls with or without CID respectively) (see FIGS. 17A and 70B). […] Apoptosis was evaluated 24 hours later by FACS analysis, after cell harvest and staining with annexin V-PE and 7-AAD. […]

Data set [3] concerns iCasp9-ΔCD19-transduced MSCs. Nature of the data set: In vivo killing of iCasp9-ΔCD19-transduced MSCs in SCID mice (luminescence, qPCR).
Data set [4] relates to gene-modified allodepleted cells. Briefly: Induction of apoptosis with AP20187 in gene-modified allodepleted cells (annexin V/7-AAD). The data set is classed as cell-based, human. On the procedure: Suicide gene functionality was assessed by adding a small molecule synthetic homodimerizer, AP20187 (Ariad Pharmaceuticals; Cambridge, Mass.), at 10 nM final concentration the day following CD19 immunomagnetic selection. Cells were stained with annexin V and 7-amino-actinomycin (7-AAD)(BD Pharmingen) at 24 hours and analyzed by flow cytometry. Cells negative for both annexin V and 7-AAD were considered viable, cells that were annexin V positive were apoptotic, and cells that were both annexin V and 7-AAD positive were necrotic. The percentage killing induced by dimerization was corrected for baseline viability as follows: Percentage killing=100%−(% Viability in AP20187-treated cells÷% Viability in non-treated cells).
Cells were maintained in T cell medium containing 50 U/ml IL-2 until 22 days after transduction. A portion of cells was reactivated on 24-well plates coated with […] OKT3 and 1 μg/ml anti-CD28 (Clone CD28.2, BD Pharmingen, San Jose, Calif.) for 48 to 72 hours. CD19 expression and suicide gene function in both reactivated and non-reactivated cells were measured on day 24 or 25 post transduction.
In some experiments, cells also were cultured for 3 weeks post transduction and stimulated with 30G-irradiated allogeneic PBMC at a responder:stimulator ratio of 1:1. After 4 days of co-culture, a portion of cells was treated with 10 nM AP20187. Killing was measured by annexin V/7-AAD staining at 24 hours, and the effect of dimerizer on bystander virus-specific T cells was assessed by pentamer analysis on AP20187-treated and untreated cells.

Setting [5] is: 10 nM, 24 hours, day following immunomagnetic selection.

Turning to `CC[C@H](C(=O)N1CCCC[C@H]1C(=O)O[C@H](CCc1ccc(OC)c(OC)c1)c1cccc(OCC(=O)NCC(CNC(=O)COc2cccc([C@@H](CCc3ccc(OC)c(OC)c3)OC(=O)[C@@H]3CCCCN3C(=O)[C@@H](CC)c3cc(OC)c(OC)c(OC)c3)c2)CN(C)C)c1)c1cc(OC)c(OC)c(OC)c1` [AP20187], the “reduction in mean fluorescence intensity of GFP after CID” value in data set [1] (CTLs that survived CID treatment) turned out to be 70%. Moreover, the “further elimination of the surviving GFP+ T cells” value in data set [1] (antigenic stimulation followed by a second 10-nM dose of CID) is on record as “No further elimination”. For the same compound, the “CID sufficient to obtain the maximal deletion effect” value in data set [1] (titration, F-Casp9M.I.GFPhigh, survival of GFP+ cells on day 7) came to 1 nM. The “GFP+ cells eliminated after a single 10-nM dose of CID” value in data set [1] (unselected iCasp9M-transduced CTLs, 5 different donors) stood at 91.3%. Also, in data set [2], the “annexin positive iCasp9-CD19-positive cells (iCasp pos/CID)” value is on record as “Ninety-three” and the “annexin positive negative population (iCasp neg/CID)” value is recorded as 19%. For the same compound, in data set [3] (after one week, qPCR), the “surviving iCasp9-positive cells, % of the original population” value is listed as 0.7%. In addition, the “effect on cells negative for iCasp9” value in data set [3] (luminescence) is on record as “not affected”. Further, in data set [4] (setting [5]), the “AP20187-treated cells remaining viable” value is reported as “about 5.5%±2.5” and the “Killing efficiency after correction for baseline viability” value was “about 92.9%±3.8”. For the same compound, the killing efficiency in data set [4] (day 24 or 25, OKT3/aCD28-reactivated cells) is ~84.6%±8.0. In addition, the “residual viability following treatment with AP20187” value in data set [4] (day 24 post transduction, 10 nM) is on record as 19.6±5.6%. For the same compound, the “apoptosis / elimination of iCasp9-modified T cells after dimerizer (summary statement)” value in data set [4] (in vitro, listed as small-molecule dimerizer) is greater than 90%.

The values are drawn from patent publication US10525110B2, “Methods for inducing partial apoptosis using caspase polypeptides” (Bellicum Pharmaceuticals, Inc., priority 2013, dated 2020).
